Residues, ends and D or L forms follow the SMILES beside them. *: point of attachment. Cbz = O=C(OCc1ccccc1)*
Tests used:
CVB3-GFP = type: cell-based, coxsackievirus B3; settings: for CVB3 infectivity in control HeLa-Fluc cells: 1 MOI, 8 hpi
CVB3 HA-2BC = experiment: Viral protein degradation in co-transfected 293T cells, Western blot; type: cell-based; settings: MG132 10 μM at 24 hours post-transfection for 6 hours
Text: Since TRIM7 binds 2C and 2BC, it was next tested whether TRIM7 targets either protein for degradation. […] 293T cells were co-transfected with plasmids expressing HA-tagged CVB3 viral proteins and 3×Flag-tagged TRIM7 (TRIM7-3F) or Fluc-expressing vector. […] Moreover, proteasome inhibition by MG132 restored HA-2BC protein in the presence of TRIM7 (FIG. 4F). Similar results were obtained with 2BC from other TRIM7-targeted enteroviruses, including EV71 and EVD68, whereas 2BC from TRIM7-insensitive MenV was unaffected (FIGS. 4G-4H). Accordingly, 2BC from EV71, but not MenV, interacted with TRIM7 in pulldown assays (FIG. 4I).
Protein lysate preparation and Western blot. Tissue culture cells were lysed in Nonidet P-40 (NP-40) buffer (50 mM Tris pH 7.4, 150 mM NaCl, 1% (v/v) NP-40, 1 mM EDTA, protease inhibitor cocktail) and incubated on ice for 30 min, followed by centrifugation at 13,000 rpm for 20 min at 4° C. For mouse tissue lysates, fresh tissues were collected in 2 ml round-bottom Eppendorf tubes containing NP40 lysis buffer and cut to small pieces using scissors. Then the tissues were homogenized with a Bullet Blender homogenizer (Next Advanced Inc., Averill Park, NY), and centrifuged at 13,000 rpm for 20 min at 4° C. Western blot analyses were performed as previously described (Mar et al., 2018).

[1] = tested on: vesicular stomatitis virus; type: cell-based
[2] = tested on: coxsackievirus B3 (CVB3-GFP); type: cell-based; settings: HeLa cells, replicate R1; for Percent Infected R1: GFP-positive cells within RFP-positive gate

Molecule | CVB3 infectivity in control HeLa-Fluc cells (CVB3-GFP) | Percent Infected R1 [2] [%] | Z score R1 [2] | further results
c1ccc(CNc2nc(NCc3ccccc3)c3ccccc3n2)cc1 [DBeQ] | modestly reduced | – | – | rescue of CVB3-GFP infection in TRIM7-expressing cells (CVB3-GFP): failed to rescue
CC(C)C[C@@H](C=O)NC(=O)[C@H](CC(C)C)NC(=O)[C@H](CC(C)C)NC(=O)OCc1ccccc1 [MG132] (Cbz-Leu-Leu-Leu-aldehyde) | modestly impaired | – | – | rescue of CVB3-GFP infection in TRIM7-expressing cells (CVB3-GFP): striking rescue; rescue of viral replication from transfected CVB3-GFP RNA (CVB3-GFP): rescued; rescue of infection in TRIM7-expressing cells, late addition (CVB3-GFP; added at later time points (post primary translation, >4 hours)): failed to rescue; HA-2BC protein in the presence of TRIM7 (CVB3 HA-2BC): restored
CO/C1=C\C(C)=C\[C@@H](C)[C@@H](O)[C@@H](C)C/C(C)=C/C=C/[C@H](OC)[C@@H]([C@@H](C)[C@@H](O)[C@H](C)[C@@]2(O)C[C@@H](O)[C@H](C)[C@@H](C(C)C)O2)OC1=O [bafilomycin A1] | no impact | – | – | replication of vesicular stomatitis virus [1]: inhibited
CCN(CC)CCCC(C)Nc1ccnc2cc(Cl)ccc12 (centres unmarked) [chloroquine] | no impact | – | – | replication of vesicular stomatitis virus [1]: inhibited
MKRN2: human RING type E3 ligase expressed from lentiviral vector | – | 93.3 | 0.06 | –
RAD18: human RING type E3 ligase expressed from lentiviral vector | – | 91.2 | 0.033 | –
RNF5: human RING type E3 ligase expressed from lentiviral vector | – | 96.1 | 0.1 | –
RNF20: human RING type E3 ligase expressed from lentiviral vector | – | 91.8 | 0.041 | –
RNF40: human RING type E3 ligase expressed from lentiviral vector | – | 97.1 | 0.11 | –
RNF126: human RING type E3 ligase expressed from lentiviral vector | – | 94.5 | 0.08 | –
TRIM5: human RING type E3 ligase expressed from lentiviral vector | – | 56.2 | −0.412 | –
TRIM21: human RING type E3 ligase expressed from lentiviral vector | – | 65.7 | −0.291 | –
TRIM25: human RING type E3 ligase expressed from lentiviral vector | – | 53.7 | −0.444 | –
